Experimental data published in PubChem BioAssay (NCI).
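Compound exposure: 48 hours, 5 concentrations, 96-well plates. At the TGI there is no net growth.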

Tests used:
Assay in all cases: NCI anticancer screen, dose series, 48 h
MDA-MB-435 = test system: MDA-MB-435
A549 NSCLC = test system: A549 NSCLC
CCRF-CEM leukemia = test system: CCRF-CEM leukemia
NCI-H23 lung = test system: NCI-H23 lung
786-0 renal = test system: 786-0 renal
SN12C renal = test system: SN12C renal
NCI-H460 lung = test system: NCI-H460 lung
XF 498 CNS = test system: XF 498 CNS
DMS 273 small cell lung = test system: DMS 273 small cell lung
DMS 114 small cell lung = test system: DMS 114 small cell lung
LXFL 529 NSCLC = test system: LXFL 529 NSCLC
M19-MEL melanoma = test system: M19-MEL melanoma
SNB-78 CNS = test system: SNB-78 CNS
KM20L2 colon = test system: KM20L2 colon
HOP-18 NSCLC = test system: HOP-18 NSCLC
DLD-1 colon = test system: DLD-1 colon

Row | SMILES | TGI (MDA-MB-435) | TGI (A549 NSCLC) | TGI (CCRF-CEM leukemia) | TGI (NCI-H23 lung) | TGI (786-0 renal) | TGI (SN12C renal) | TGI (NCI-H460 lung) | TGI (XF 498 CNS) | TGI (DMS 273 small cell lung) | TGI (DMS 114 small cell lung) | TGI (LXFL 529 NSCLC) | TGI (M19-MEL melanoma) | TGI (SNB-78 CNS) | TGI (KM20L2 colon) | TGI (HOP-18 NSCLC) | TGI (DLD-1 colon)
1 | Fc1ccccc1-c1nn2c(C34CC5CC(CC(C5)C3)C4)nnc2s1 | > 100 µM | > 100 µM | > 100 µM | > 100 µM | > 100 µM | > 100 µM | > 100 µM |  |  |  |  |  |  |  |  | 
2 | CC1=C(C(=O)NCCc2ccccc2)CC(C(=O)NCCc2ccccc2)=C(C)N1 | > 100 µM | > 100 µM | 76.5 µM | > 100 µM | > 100 µM | > 100 µM | > 100 µM |  |  |  |  |  |  |  |  | 
3 | CC(=O)NC1C(O)C(O)C(CO)OC1n1ncc(=O)[nH]c1=O (configuration not stated) | > 100 µM | > 100 µM | > 100 µM | > 100 µM | > 100 µM | > 100 µM | > 100 µM |  |  |  |  |  |  |  |  | 
4 | COc1cc(C=Nc2ccc(C(C)C)cc2)cc(OC)c1OC |  | > 100 µM | > 100 µM | > 100 µM | > 100 µM | > 100 µM | > 100 µM | > 100 µM | > 100 µM | > 100 µM | > 100 µM | > 100 µM | > 100 µM | > 100 µM | > 100 µM | > 100 µM
5 | CCSC1=N/C(=C\c2ccco2)C(Cl)=N1 | > 100 µM | > 100 µM | > 100 µM | > 100 µM | > 100 µM | > 100 µM | > 100 µM |  |  |  |  |  |  |  |  | 
6 | C#C[C@]1(O)CCC2C3CCc4cc(Oc5nc(F)nc(-c6c7cc8ccccc8cc7c7n6CCS7)n5)ccc4C3CCC21C (some centres not stated) |  | > 100 µM | > 100 µM | > 100 µM | > 100 µM | > 100 µM | > 100 µM | > 100 µM | > 100 µM | 50.8 µM | > 100 µM | > 100 µM | > 100 µM | 99.6 µM | > 100 µM | > 100 µM
7 | COc1ccc(NC(C)=O)cc1C1CCC(=O)N1 (configuration not stated) | > 100 µM | > 100 µM | > 100 µM | > 100 µM | > 100 µM | > 100 µM | > 100 µM |  |  |  |  |  |  |  |  | 
8 | OC(C/C(=N\N1CCCCC1)c1cccs1)(C(F)(F)F)C(F)(F)F | > 10 µM | > 10 µM | > 10 µM | > 10 µM | > 10 µM | > 10 µM | > 10 µM |  |  |  |  |  |  |  |  | 
9 | COc1ccc2cc(/C=N\NC(=O)Nc3cccc4ccccc34)ccc2c1 | > 100 µM | > 100 µM | 41.8 µM | > 100 µM | 25.5 µM | > 100 µM | 86.4 µM |  |  |  |  |  |  |  |  | 
10 | CCCN1CN(C(C(=O)N[C@@H]2C(=O)N3C(C(=O)O)=C(C)CSC23)c2ccc(O)cc2)CSC1=S (some centres not stated) |  | > 100 µM | > 100 µM | > 100 µM | > 100 µM | > 100 µM | > 100 µM | > 100 µM | > 100 µM | > 100 µM | > 100 µM | > 100 µM | > 100 µM | > 100 µM | > 100 µM | > 100 µM
11 | O=C(c1cccs1)N(C(=S)N1CCN(c2ccccn2)CC1)C1CCCCC1 |  | > 100 µM | > 100 µM | > 100 µM | > 100 µM | > 100 µM | > 100 µM |  | > 100 µM | > 100 µM | > 100 µM |  | > 100 µM | > 100 µM | > 100 µM | > 100 µM
